The record followed here is patent publication US20070167452A1, “Therapeutic amide derivatives” (PFIZER, INC., priority 2004, published 2007).

`O=C(NC[C@]1(O)CC[C@H](COc2c(F)cccc2F)CC1)c1ccc(O)cc1` [Example 12, N-({trans-4-[(2,6-Difluorophenoxy)methyl]-1-hydroxycyclohexyl}methyl)-4-hydroxybenzamide] came in with a melting point of 153.7 °C.

In the case of `O=C(NC[C@]1(O)CC[C@H](CCOc2ccc(F)cc2)CC1)c1ccc(O)cc1` [Example 29, N-({trans-4-[2-(4-Fluorophenoxy)ethyl]-1-hydroxycyclohexyl}methyl)-4-hydroxybenzamide], the melting point worked out at 177.5 °C.

With `O=C(NC[C@H]1CC[C@@H](Oc2ccc(F)cc2)CC1)c1ccc(O)cc1` [Example 54, N-{[cis-4-(4-Fluorophenoxy)cyclohexyl]methyl}-4-hydroxybenzamide], the melting point is 170.5 °C. Compound `O=C(NC[C@]1(O)CC[C@H](CCOc2ccccc2F)CC1)c1ccc(O)c(F)c1` [Example 51, 3-Fluoro-N-({trans-4-[2-(2-fluorophenoxy)ethyl]-1-hydroxycyclohexyl}methyl)-4-hydroxybenzamide] showed a melting point of 184.7 °C.

As for `O=C(NC[C@]1(O)CC[C@H](CCOc2ccccc2F)CC1)c1ccc(O)cc1` [Example 27, N-({trans-4-[2-(2-Fluorophenoxy)ethyl]-1-hydroxycyclohexyl}methyl)-4-hydroxybenzamide], the melting point was found to be 178.9 °C.

Regarding `O=C(NC[C@]1(O)CC[C@H](CCOc2ccccc2)CC1)c1ccc(O)cc1` [Example 26, 4-Hydroxy-N-{[trans-1-hydroxy-4-(2-phenoxyethyl)cyclohexyl]methyl}benzamide], the melting point was found to be 168.7 °C.

As for `O=C(NC[C@H]1CC[C@@H](OCCc2ccccc2)CC1)c1cn[nH]c1` [Example 72, N-{[cis-4-(2-Phenylethoxy)cyclohexyl]methyl}-1H-pyrazole-4-carboxamide], the melting point came to 145 °C. With `O=C(NC[C@]1(O)CC[C@H](COc2ccccc2)CC1)c1ccc(O)cc1` [Example 8, 4-Hydroxy-N-{[trans-1-hydroxy-4-(phenoxymethyl)cyclohexyl]methyl}benzamide], the melting point was 189.5 °C.

Take `O=C(NC[C@]1(O)CC[C@H](COCc2ccc(Cl)cc2)CC1)c1ccc(O)cc1` [Example 25, N-[(trans-4-{[(4-Chlorobenzyl)oxy]methyl}-1-hydroxycyclohexyl)methyl]-4-hydroxybenzamide]: the melting point turned out to be 164.1 °C.

For the compound `O=C(NC[C@H]1CC[C@@H](CCOc2ccccc2)CC1)c1cc[nH]c1` [Example 96, N-{[cis-4-(2-Phenoxyethyl)cyclohexyl]methyl}-1H-pyrrole-3-carboxamide], the melting point amounted to 121 °C. As for `O=C(NC[C@H]1CC[C@@H](Cc2ccccc2)CC1)c1ccc2nc(O)ccc2c1` [Example 122, N-[(cis-4-Benzylcyclohexyl)methyl]-2-hydroxyquinoline-6-carboxamide], the melting point was found to be 236.7 °C.

`O=C(NC[C@H]1CC[C@@H](COc2ccccc2)CC1)c1ccc(O)nc1` [Example 82, 6-Hydroxy-N-{[cis-4-(phenoxymethyl)cyclohexyl]methyl}nicotinamide] yielded a melting point of 189.8 °C. The same measure for `O=C(NC[C@H]1CC[C@@H](CCOc2ccccc2)CC1)c1ccc2[nH]ncc2c1` [Example 103, N-{[cis-4-(2-Phenoxyethyl)cyclohexyl]methyl}-1H-indazole-5-carboxamide]: 144.5 °C; for `O=C1CCc2cc(C(=O)NC[C@H]3CC[C@@H](Cc4ccccc4)CC3)ccc2N1` [Example 118, N-[(cis-4-Benzylcyclohexyl)methyl]-2-oxo-1,2,3,4-tetrahydroquinoline-6-carboxamide]: 188.5 °C; for `O=C(NC[C@H]1CC[C@@H](CCOc2ccccc2)CC1)c1ccc(O)nc1` [Example 84, 6-Hydroxy-N-{[cis-4-(2-phenoxyethyl)cyclohexyl]methyl}nicotinamide]: 167.6 °C. With `O=C(NC[C@H]1CC[C@@H](COc2ccccc2F)CC1)c1cn[nH]c1` [Example 100, N-({cis-4-[(2-Fluorophenoxy)methyl]cyclohexyl}methyl)-1H-pyrazole-4-carboxamide] the figure was 139.8 °C; with `O=C(NC[C@H]1CC[C@@H](CCOc2ccccc2)CC1)c1c[nH]nn1` [Example 104, N-{[cis-4-(2-Phenoxyethyl)cyclohexyl]methyl}-1H-1,2,3-triazole-4-carboxamide], 141.2 °C. `O=C(NC[C@]1(O)CC[C@H](COc2ccccc2Cl)CC1)c1ccc(O)cc1` [Example 14, N-({trans-4-[(2-Chlorophenoxy)methyl]-1-hydroxycyclohexyl}methyl)-4-hydroxybenzamide] came in with a melting point of 159 °C. For `O=C(NC[C@H]1CC[C@@H](CCOc2ccccc2)CC1)c1ccnc(O)c1` [Example 83, 2-Hydroxy-N-{[cis-4-(2-phenoxyethyl)cyclohexyl]methyl}isonicotinamide], the melting point is 199.9 °C.

With `COc1cccc(OC[C@H]2CC[C@@](O)(CNC(=O)c3ccc(O)cc3)CC2)c1` [Example 20, 4-Hydroxy-N-({trans-1-hydroxy-4-[(3-methoxyphenoxy)methyl]cyclohexyl}methyl)benzamide], the melting point is 190.3 °C. As for `O=C(NC[C@H]1CC[C@@H](CCOc2ccccc2)CC1)c1ccc2[nH]c(=O)sc2c1` [Example 101, 2-Oxo-N-{[cis-4-(2-phenoxyethyl)cyclohexyl]methyl}-2,3-dihydro-1,3-benzothiazole-6-carboxamid], the melting point came out at 159.9 °C. As for `O=C(NC[C@H]1CC[C@@H](COc2ccc(F)cc2)CC1)c1cn[nH]c1` [Example 109, N-({cis-4-[(4-Fluorophenoxy)methyl]cyclohexyl}methyl)-1H-pyrazole-4-carboxamide], the melting point worked out at 147.1 °C. `Nc1n[nH]cc1C(=O)NC[C@H]1CC[C@@H](CCOc2ccccc2)CC1` [Example 102, 3-Amino-N-{[cis-4-(2-phenoxyethyl)cyclohexyl]methyl)-1H-pyrazole-4-carboxamide] registered a melting point of 129.3 °C.

In turn, `O=C(NC[C@H]1CC[C@@H](CCOc2ccccc2)CC1)c1ccn[nH]1` [Example 85, N-{[cis-4-(2-Phenoxyethyl)cyclohexyl]methyl}-1H-pyrazole-5-carboxamide] returned a melting point of 130.5 °C. Turning to `O=C(NC[C@]1(O)CC[C@H](OCc2ccc(F)cc2)CC1)c1ccc(O)cc1` [Example 47, N-({trans-4-[(4-Fluorobenzyl)oxy]-1-hydroxycyclohexyl}methyl)-4-hydroxybenzamide], the melting point came to 122.1 °C. The same measure for `O=C(NC[C@]1(O)CC[C@H](OCc2cccc(F)c2)CC1)c1ccc(O)c(F)c1` [Example 49]: 138.2 °C; for `O=C(NC[C@]1(O)CC[C@H](CCOc2cccc(F)c2)CC1)c1ccc(O)cc1` [Example 28, N-({trans-4-[2-(3-Fluorophenoxy)ethyl]-1-hydroxycyclohexyl}methyl)-4-hydroxybenzamide]: 134.5 °C; for `O=C(NC[C@H]1CC[C@@H](CCOc2ccccc2)CC1)c1c[nH]cn1` [Example 86, N-{[cis-4-(2-Phenoxyethyl)cyclohexyl]methyl}-1H-imidazole-4-carboxamide]: 169.6 °C. On to `O=C(NC[C@H]1CC[C@@H](Oc2ccc(F)cc2)CC1)c1ccc(O)c(F)c1` [Example 55, 3-Fluoro-N-{[cis-4-(4-fluorophenoxy)cyclohexyl]methyl}-4-hydroxybenzamide], for which the melting point was 149.5 °C. `O=C(NC[C@H]1CC[C@@H](CCOc2ccccc2)CC1)c1cn[nH]c1` [Example 77, N-{[cis-4-(2-Phenoxyethyl)cyclohexyl]methyl}-1H-pyrazole-4-carboxamide] had a melting point of 155.7 °C. With `O=C(NC[C@]1(O)CC[C@@H](Oc2ccc(Cl)cc2)CC1)c1ccc(O)cc1` [Example 32, N-{[cis-4-(4-Chlorophenoxy)-1-hydroxycyclohexyl]methyl}-4-hydroxybenzamide] the figure was 196.6 °C. Consider `O=C(NC[C@H]1CC[C@@H](CCOc2ccccc2)CC1)c1ccc(=O)[nH]n1` [Example 93, 6-Oxo-N-{[cis-4-(2-phenoxyethyl)cyclohexyl]methyl}-1,6-dihydropyridazine-3-carboxamide], for which the melting point was 177.5 °C.
